US20110038856A1, “METHODS OF TREATING NEOPLASTIC, AUTOIMMUNE AND INFLAMMATORY DISEASES” (Seattle Genetics, Inc., priority 2006, published 2011)

Legend:
HL-60 cells = assay: Mouse AML model, HL-60 cells injected intravenously; format: in vivo, mice
Description: Mice were implanted with an AML cell line, HL-60, as follows: 5 million HL-60 cells were injected intravenously. The mice were treated with lintuzumab (10 mg/kg, q4d×4, ip), cytarabine (1 mg/kg, 5 mg/kg or 25 mg/kg, q1d×10, or 50 mg/kg or 100 mg/kg, q2d×5, ip) or lintuzumab with cytarabine (dosed as described previously). Treatment began on day one.
To confirm the data of the in vitro study, mice were implanted with an AML cell line, HL-60, as follows: 5 million HL-60 cells were injected intravenously. […] Treatment began on day one.

target cells = assay: ADCC activity, standard 51Cr release assay with NK cells; format: cell-based; settings: NK cells pre-treated for 2 to 3 h with drug prior to addition to target cells; FIG. 23
Description: Viable NK cells were pre-treated for 2 to 3 h with lenalidomide or thalidomide (as described in FIG. 23) prior to addition to target cells.

[1] = test system: primary human macrophages; assay: Macrophage migration in response to chemoattractants (CytoSelect Cell Migration Assay); format: cell-based; settings: 10% human serum or 20% conditioned media from RPMI 8226 cells; p<0.05; FIG. 21
Description: (§1) The migration of macrophages in response to challenge with plating media containing 10% human serum, 20% conditioned tumor cell media, or 50 ng/ml TGF-β, VEGF, TNF-α, or IFN-γ was evaluated using the CytoSelect Cell Migration Assay (Cell Biolabs, San Diego, Calif.). […] The study was stopped 18 hours later and migration was evaluated after dissociation of the cells from the membrane followed by detection with Cyquant GR dye.
as §1, with “serum or” for “serum,”, “media” for “media, or 50 ng/ml TGF-β, VEGF, TNF-α, or IFN-γ”, “studies were” for “study was”, “h” for “hours”

CD33 [2] = biological target: T1, CD33 (Homo sapiens, UniProt P20138); assay: Binding of deglycosylated SGN-33 to CD33 by ELISA; settings: data not shown
T1 sequence (P20138 18-364): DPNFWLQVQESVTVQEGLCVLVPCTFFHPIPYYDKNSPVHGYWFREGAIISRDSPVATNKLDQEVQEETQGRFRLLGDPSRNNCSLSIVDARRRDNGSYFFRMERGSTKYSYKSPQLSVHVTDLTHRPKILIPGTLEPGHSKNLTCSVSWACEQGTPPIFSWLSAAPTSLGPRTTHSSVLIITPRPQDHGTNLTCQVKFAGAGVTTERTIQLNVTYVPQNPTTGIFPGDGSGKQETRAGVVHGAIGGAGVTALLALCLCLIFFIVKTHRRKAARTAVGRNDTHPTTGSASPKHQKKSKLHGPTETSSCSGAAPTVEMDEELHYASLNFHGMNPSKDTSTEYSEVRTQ

[3] = Effector function (ADCC or CDC activity) of deglycosylated antibody; format: cell-based; settings: data not shown; unlike the intact antibody
CD33 [4] = biological target: T1, CD33; assay: SGN-33 signaling in HL-60 cells, primary human monocytes and macrophages (CD33 immunoprecipitation, Western blot); format: cell-based; design: endogenous in cells; host or cells: HL-60 (ATCC); primary human CD14+ monocytes (Cambrex); macrophages derived from human PBMCs; settings: HL-60 and monocytes; 30 minutes; FIG. 16
Description: Deglycosylation was confirmed by CE-SDS. […] Cell lysates were prepared and CD33 immunoprecipitated using an anti-CD33 rabbit polyclonal antibody (Santa Cruz Biotechnology, Santa Cruz, Calif.) prior to SDS PAGE gel electrophoresis. Western blot analyses of these samples were performed using the 4G10 phosphotyrosine antibody (Upstate Biotechnology, Temucula, Calif.), anti-CD33 antibody (NovoCastra, Norwell, Mass.), and anti-SHP-1 antibody (Calbiochem, San Diego, Calif.). Control lysate for SHP-1 was prepared from a B cell lymphoma cell line.

HEL 92.1.7 cells = assay: Complement-dependent cytotoxicity (CDC) on MDR+ CD33-positive AML cell line; format: cell-based, human; settings: HEL 92.1.7 cells preincubated with drug for two hours prior to anti-CD33 Ab; FIG. 4
Description: The purpose of this study was to determine whether the cytotoxic effects of an anti-CD33 antibody (HuM195) on AML cells could be enhanced by combination treatment with chemotherapeutic drugs. An MDR^+, CD33-positive AML cell line (HEL 92.1.7) was either untreated or preincubated with the indicated concentrations of thalidomide or 5-azacytidine for two hours prior to exposure to the anti-CD33 Ab. Cytotoxic activity was measured using a complement-dependent cytotoxicity (CDC) activity.

## Nc1ccn([C@@H]2O[C@H](CO)[C@@H](O)[C@@H]2O)c(=O)n1 [cytarabine, reference compound]
HL-60 cells; low doses of cytarabine alone, ip, FIG. 22
  percent survival rates compared to untreated controls: increasing percent survival rates

## Nc1cccc2c1CN(C1CCC(=O)NC1=O)C2=O (stereo not shown) [lenalidomide, reference compound]
HL-60 cells; lenalidomide 25 mg/kg, qd×3, ip alone, control mice about day 60, FIG. 24
  day by which mice were removed from study due to tumor progression: ~90 days
Target cells
  SGN-33 mediated ADCC: enhance SGN-33 mediated ADCC

## deglycosylated SGN-33: SGN-33 treated with PN-glycosidase F; does not interact with Fc receptors
[1]
  macrophage migration: significantly reduced
CD33 [2]
  binding to CD33: confirmed
[3]
  effector function, including ADCC or CDC activity: did not mediate effector function
CD33 [4]
  recruitment of SHP-1 to the CD33 complex: resulted in recruitment of SHP-1

## Nc1ncn([C@@H]2O[C@H](CO)[C@@H](O)[C@H]2O)c(=O)n1 [5-azacytidine]
HEL 92.1.7 cells
  sensitivity of MDR+ AML cells to HuM195-mediated CDC activity: enhanced the sensitivity

## O=C1CCC(N2C(=O)c3ccccc3C2=O)C(=O)N1 (stereo not shown) [thalidomide]
HEL 92.1.7 cells
  sensitivity of MDR+ AML cells to HuM195-mediated CDC activity: enhanced the sensitivity
Target cells
  SGN-33 mediated ADCC: enhance SGN-33 mediated ADCC
